Test results as given in patent US20090018111A1, “Novel Antimicrobial Medicament” (priority 2004, published 2009).

Legend:
Assay in all cases: Sensitivity test (agar dilution), clinical isolate
Format in all cases: cell-based, Serratia marcescens
[1] = test system: S. marcescens 14425
Method: (§1) In addition, the antibacterial activities were tested against strains which are comparatively less sensitive to β-lactam compounds, namely clinically isolated 13 strains of Acinetobacter calcoaceticus and Acinetobacter lwoffi, clinically isolated 11 strains of Serratia marcescens, clinically isolated 12 strains of Burkholderia cepacia, and clinically isolated 15 strains of Pseudomonas aeruginosa.
(§2) According to the standard method of Japan Chemotherapeutic Society (Chemotherapy, vol. […], p 76-79 (1981)) the test was carried out using the agar dilution method. After dissolving test samples in distilled water, agar medium containing the test samples was prepared in such a manner that the final concentration became twice serial dilution by pouring serially diluted combination drug solution or a single drug solution into agar medium. As agar medium was used Mueller Hinton Agar medium (MHA). Then, each strain was cultivated over night at 37° C. in an incubator and suspended in buffered saline solution with gelatin (BSG) in the concentration of about 10^6 CFU/ml. The suspension (about 5 μl) containing test strains was inoculated to the medium containing the test samples by Micro Planter.
(§3) Each drug was weighed, and dissolved in distilled water to give a test sample. When the drugs are used in combination, two kinds of solution containing each drug were mixed so as to be various ratio of concentration to give a mixed solution. When the sample is subjected to sensitivity test, this mixed solution was diluted by twice serial dilution method.
(§4) Furthermore, when the drug is solely used, each test sample was used as it is, and diluted by twice serial dilution method from the maximum concentration to the minimum concentration.

[2] = test system: S. marcescens 14689
Method: as §1, §2, §3, §4

[3] = test system: S. marcescens 14424
Method: as §1, §2, §3, §4

[4] = test system: S. marcescens 7155
Method: as §1, §2, §3, §4

[5] = test system: S. marcescens 14991
Method: as §1, §2, §3, §4

[6] = test system: S. marcescens 1944950
Method: as §1, §2, §3, §4

[7] = test system: S. marcescens 7138
Method: as §1, §2, §3, §4

[8] = test system: S. marcescens 2054522
Method: as §1, §2, §3, §4

[9] = test system: S. marcescens 14981
Method: as §1, §2, §3, §4

[10] = test system: S. marcescens 1928513
Method: as §1, §2, §3, §4

[11] = Serratia marcescens, 14425, Concomitant (ME:SM = 1:1)
[12] = Serratia marcescens, 14425, Concomitant (ME:SM = 1:2)
[13] = Serratia marcescens, 14425, Concomitant (ME:SM = 1:4)
[14] = Serratia marcescens, 14425, Concomitant (ME:SM = 2:1)
[15] = Serratia marcescens, 14425, alone
[16] = Serratia marcescens, 14689, Concomitant (ME:SM = 1:1)
[17] = Serratia marcescens, 14689, Concomitant (ME:SM = 1:2)
[18] = Serratia marcescens, 14689, Concomitant (ME:SM = 1:4)
[19] = Serratia marcescens, 14689, Concomitant (ME:SM = 2:1)
[20] = Serratia marcescens, 14689, alone
[21] = Serratia marcescens, 14424, Concomitant (ME:SM = 1:1)
[22] = Serratia marcescens, 14424, Concomitant (ME:SM = 1:2)
[23] = Serratia marcescens, 14424, Concomitant (ME:SM = 1:4)
[24] = Serratia marcescens, 14424, Concomitant (ME:SM = 2:1)
[25] = Serratia marcescens, 14424, alone
[26] = Serratia marcescens, 7155, Concomitant (ME:SM = 1:1)
[27] = Serratia marcescens, 7155, Concomitant (ME:SM = 1:2)
[28] = Serratia marcescens, 7155, Concomitant (ME:SM = 1:4)
[29] = Serratia marcescens, 7155, Concomitant (ME:SM = 2:1)
[30] = Serratia marcescens, 7155, alone
[31] = Serratia marcescens, 14991, Concomitant (ME:SM = 1:1)
[32] = Serratia marcescens, 14991, Concomitant (ME:SM = 1:2)
[33] = Serratia marcescens, 14991, Concomitant (ME:SM = 1:4)
[34] = Serratia marcescens, 14991, Concomitant (ME:SM = 2:1)
[35] = Serratia marcescens, 14991, alone
[36] = Serratia marcescens, 1944950, Concomitant (ME:SM = 1:1)
[37] = Serratia marcescens, 1944950, Concomitant (ME:SM = 1:2)
[38] = Serratia marcescens, 1944950, Concomitant (ME:SM = 1:4)
[39] = Serratia marcescens, 1944950, Concomitant (ME:SM = 2:1)
[40] = Serratia marcescens, 1944950, alone
[41] = Serratia marcescens, 7138, Concomitant (ME:SM = 1:1)
[42] = Serratia marcescens, 7138, Concomitant (ME:SM = 1:2)
[43] = Serratia marcescens, 7138, Concomitant (ME:SM = 1:4)
[44] = Serratia marcescens, 7138, Concomitant (ME:SM = 2:1)
[45] = Serratia marcescens, 7138, alone
[46] = Serratia marcescens, 2054522, Concomitant (ME:SM = 1:1)
[47] = Serratia marcescens, 2054522, Concomitant (ME:SM = 1:2)
[48] = Serratia marcescens, 2054522, Concomitant (ME:SM = 1:4)
[49] = Serratia marcescens, 2054522, Concomitant (ME:SM = 2:1)
[50] = Serratia marcescens, 2054522, alone
[51] = Serratia marcescens, 14981, Concomitant (ME:SM = 1:1)
[52] = Serratia marcescens, 14981, Concomitant (ME:SM = 1:2)
[53] = Serratia marcescens, 14981, Concomitant (ME:SM = 1:4)
[54] = Serratia marcescens, 14981, Concomitant (ME:SM = 2:1)
[55] = Serratia marcescens, 14981, alone
[56] = Serratia marcescens, 1928513, Concomitant (ME:SM = 1:1)
[57] = Serratia marcescens, 1928513, Concomitant (ME:SM = 1:2)
[58] = Serratia marcescens, 1928513, Concomitant (ME:SM = 1:4)
[59] = Serratia marcescens, 1928513, Concomitant (ME:SM = 2:1)
[60] = Serratia marcescens, 1928513, alone

C[C@@H](O)[C@H]1C(=O)N2C(C(=O)O)=C(S[C@@H]3CN[C@H](C(=O)N(C)C)C3)[C@H](C)[C@H]12 [MEPM, meropenem]
MIC [1, 11]: 0.031 µg/mL
MIC [1, 12]: 0.031 µg/mL
MIC [1, 13]: 0.031 µg/mL
MIC [1, 14]: 0.031 µg/mL
MIC [1, 15]: 0.031 µg/mL
MIC [2, 16]: 2 µg/mL
MIC [2, 17]: 2 µg/mL
MIC [2, 18]: 2 µg/mL
MIC [2, 19]: 4 µg/mL
MIC [2, 20]: 4 µg/mL
MIC [3, 21]: 8 µg/mL
MIC [3, 22]: 2 µg/mL
MIC [3, 23]: 2 µg/mL
MIC [3, 24]: 4 µg/mL
MIC [3, 25]: 4 µg/mL
MIC [4, 26]: 2 µg/mL
MIC [4, 27]: 1 µg/mL
MIC [4, 28]: 0.5 µg/mL
MIC [4, 29]: 2 µg/mL
MIC [4, 30]: 2 µg/mL
MIC [5, 31]: 2 µg/mL
MIC [5, 32]: 1 µg/mL
MIC [5, 33]: 1 µg/mL
MIC [5, 34]: 1 µg/mL
MIC [5, 35]: 1 µg/mL
MIC [6, 36]: 8 µg/mL
MIC [6, 37]: 4 µg/mL
MIC [6, 38]: 4 µg/mL
MIC [6, 39]: 8 µg/mL
MIC [6, 40]: 8 µg/mL
MIC [7, 41]: 2 µg/mL
MIC [7, 42]: 1 µg/mL
MIC [7, 43]: 0.5 µg/mL
MIC [7, 44]: 2 µg/mL
MIC [7, 45]: 2 µg/mL
MIC [8, 46]: 1 µg/mL
MIC [8, 47]: 0.5 µg/mL
MIC [8, 48]: 0.5 µg/mL
MIC [8, 49]: 1 µg/mL
MIC [8, 50]: 1 µg/mL
MIC [9, 51]: 1 µg/mL
MIC [9, 52]: 0.5 µg/mL
MIC [9, 53]: 0.5 µg/mL
MIC [9, 54]: 1 µg/mL
MIC [9, 55]: 1 µg/mL
MIC [10, 56]: 1 µg/mL
MIC [10, 57]: 0.5 µg/mL
MIC [10, 58]: 0.5 µg/mL
MIC [10, 59]: 1 µg/mL
MIC [10, 60]: 1 µg/mL

C[C@H]1C=C(c2csc(SC3=C(C(=O)O)N4C(=O)[C@H]([C@@H](C)O)[C@H]4[C@H]3C)n2)CN1 [SM, (4R,5S,6S)-6-[(1R)-1-Hydroxyethyl]-4-methyl-3-({4-[(5S)-5-methyl-2,5-dihydro-1H-pyrrol-3-yl]-1,3-thiazol-2-yl}sulfanyl)-7-oxo-1-azabicyclo[3.2.0]hept-2-ene-2-carboxylic acid]
MIC [1, 11]: 0.031 µg/mL
MIC [1, 12]: 0.063 µg/mL
MIC [1, 13]: 0.125 µg/mL
MIC [1, 14]: 0.016 µg/mL
MIC [1, 15]: 2 µg/mL
MIC [2, 16]: 2 µg/mL
MIC [2, 17]: 4 µg/mL
MIC [2, 18]: 8 µg/mL
MIC [2, 19]: 2 µg/mL
MIC [2, 20]: 32 µg/mL
MIC [3, 21]: 8 µg/mL
MIC [3, 22]: 4 µg/mL
MIC [3, 23]: 8 µg/mL
MIC [3, 24]: 2 µg/mL
MIC [3, 25]: 16 µg/mL
MIC [4, 26]: 2 µg/mL
MIC [4, 27]: 2 µg/mL
MIC [4, 28]: 2 µg/mL
MIC [4, 29]: 1 µg/mL
MIC [4, 30]: 8 µg/mL
MIC [5, 31]: 2 µg/mL
MIC [5, 32]: 2 µg/mL
MIC [5, 33]: 4 µg/mL
MIC [5, 34]: 0.5 µg/mL
MIC [5, 35]: 32 µg/mL
MIC [6, 36]: 8 µg/mL
MIC [6, 37]: 8 µg/mL
MIC [6, 38]: 16 µg/mL
MIC [6, 39]: 4 µg/mL
MIC [6, 40]: 32 µg/mL
MIC [7, 41]: 2 µg/mL
MIC [7, 42]: 2 µg/mL
MIC [7, 43]: 2 µg/mL
MIC [7, 44]: 1 µg/mL
MIC [7, 45]: 8 µg/mL
MIC [8, 46]: 1 µg/mL
MIC [8, 47]: 1 µg/mL
MIC [8, 48]: 2 µg/mL
MIC [8, 49]: 0.5 µg/mL
MIC [8, 50]: 8 µg/mL
MIC [9, 51]: 1 µg/mL
MIC [9, 52]: 1 µg/mL
MIC [9, 53]: 2 µg/mL
MIC [9, 54]: 0.5 µg/mL
MIC [9, 55]: 8 µg/mL
MIC [10, 56]: 1 µg/mL
MIC [10, 57]: 1 µg/mL
MIC [10, 58]: 2 µg/mL
MIC [10, 59]: 0.5 µg/mL
MIC [10, 60]: 8 µg/mL
